This is an account of results in ChEMBL document CHEMBL1201862, “PubChem BioAssay data set” (2004).

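Interpolation was linear, between the two tested concentrations surrounding the appropriate level; five concentrations were tested over 48 hours in 96-well plates. The concentration for 50% growth inhibition is given as GI50.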 Active and inactive are the calls of the source. Rule as the data show it: active = GI50 up to about 1.1 µM and inactive = higher. Bounds are passed on as bounds.

What all share (test): growth of human tumour cells (NCI), 48 h
The test system of assay [1] is ACHN.
Assay [2] relates to DU-145.
For assay [3], the system named is HCT-15.
For assay [4], the system named is Hs-578T.
For assay [5], the system named is K562.
Assay [6] concerns M14.
Assay [7] has as its system MCF7.
The test system of assay [8] is MDA-MB-435.
Assay [9] has as its system NCI-H23.
Assay [10] has as its system NCI-H460.
For assay [11], the system named is OVCAR-4.
The subject of assay [12] is SF-268.
Assay [13] concerns SF-539.
Assay [14] relates to SK-OV-3.
Assay [15] deals with SN12C.
In assay [16] the test system is SNB-19.
Assay [17] has as its system SR.
The subject of assay [18] is UACC-257.
Assay [19] deals with UACC-62.
For assay [20], the system named is OVCAR-5.

For the compound `CC(=O)Nc1ccc(-c2nc3ccccc3s2)cc1Br`, the GI50 in assay [1] was 63.4 µM (inactive); in assay [2], 48.2 µM (inactive); in assay [3], above 59.7 µM; in assay [4], 15.7 µM (inactive); in assay [5], > 100 µM (inactive); in assay [6] it was 77.4 µM (inactive). Besides, the GI50 in assay [7] was 0.141 µM (active); in assay [8], > 100 µM (inactive); in [9] it was 27.4 µM (inactive); in assay [10], > 92.5 µM (inactive); in assay [11] it was > 38.7 µM (inactive); in assay [12], 44.3 µM (inactive). Also, the GI50 in [13] was 27.3 µM (inactive); in assay [14], 23.2 µM (inactive); in [15], > 78.9 µM (inactive); in [16], 37.5 µM (inactive); in assay [17], > 100 µM (inactive); in assay [18], > 100 µM (inactive). Besides, the GI50 in assay [19] is > 72.1 µM (inactive).
As for `Fc1ccc(OCc2nc3cc(C(F)(F)F)ccc3nc2-c2ccccc2)cc1`, the GI50 in [1] is > 100 µM (inactive); in assay [2], > 100 µM (inactive); in assay [3], above 66.2 µM; in assay [4], > 81.7 µM (inactive); in assay [5] it was 3.06 µM (inactive); in assay [6] it was > 94 µM (inactive). The GI50 in assay [7] is 67.8 µM (inactive); in assay [8], > 63.8 µM (inactive); in assay [9], > 100 µM (inactive); in assay [10], > 100 µM (inactive); in assay [11], 92 µM (inactive); in assay [20], > 100 µM (inactive). Besides, the GI50 is > 100 µM (inactive) in [12]; > 100 µM (inactive) in assay [13]; > 100 µM (inactive) in assay [15]; > 83 µM (inactive) in assay [16]; 41.9 µM (inactive) in assay [17]; > 23.8 µM (inactive) in assay [18]. Besides, in [19], the GI50 was > 100 µM (inactive).
Take `CN(C)c1ccc(C2C(Cl)C(=O)N2NC(=O)c2c(Cl)c(Cl)c(Cl)c(Cl)c2-c2nc3ccccc3[nH]2)cc1` (centres undefined): the GI50 was 15.8 µM (inactive) in assay [1]; 6.92 µM (inactive) in [2]; 12.9 µM in [3]; 33.3 µM (inactive) in [4]; 4.44 µM (inactive) in assay [5]; 13.3 µM (inactive) in assay [6]. In addition, the GI50 in assay [7] is 5.53 µM (inactive); in [8], 4.76 µM (inactive); in assay [9], 12.5 µM (inactive); in assay [20], 31.3 µM (inactive); in [12], 11.5 µM (inactive); in [13], 7.89 µM (inactive). In addition, the GI50 is 33.7 µM (inactive) in [14]; 11.1 µM (inactive) in assay [15]; 30.3 µM (inactive) in assay [16]; 0.685 µM (active) in [17]; 20.5 µM (inactive) in assay [18]; 12.7 µM (inactive) in assay [19].
Turning to `COc1cccc2c(N)c3cccc(C(=O)NCCN(C)C)c3nc12`, the GI50 in assay [1] is 0.0991 µM (active); in [2] it was 0.261 µM (active); in assay [3] it was 1.38 µM; in assay [4], 0.0746 µM (active); in assay [5] it was 0.0415 µM (active); in assay [6], 0.432 µM (active). For the same compound, the GI50 in assay [7] is 0.0146 µM (active); in [8], 0.422 µM (active); in assay [9], 0.132 µM (active); in assay [11], 0.157 µM (active); in [20], 0.344 µM (active); in [12], 0.0659 µM (active). The GI50 in assay [13] is 0.135 µM (active); in [14] it was 0.233 µM (active); in assay [15], 0.0389 µM (active); in assay [16], 0.134 µM (active); in [17], 0.0152 µM (active); in assay [18] it was 0.701 µM (active). For the same compound, the GI50 in assay [19] was 0.357 µM (active).
`NC1=C(N2CCCCC2)C(=O)NC2=N/C(=C\c3ccccc3)C(=O)N21`: the GI50 in assay [1] is > 100 µM (inactive); in assay [2] it was > 100 µM (inactive); in assay [3], above 100 µM; in [4] it was > 100 µM (inactive); in assay [5], 57.5 µM (inactive); in [6], > 100 µM (inactive). Besides, the GI50 in assay [7] is > 100 µM (inactive); in assay [8], > 100 µM (inactive); in assay [9], > 100 µM (inactive); in assay [10] it was > 100 µM (inactive); in assay [11], 86.3 µM (inactive); in [20], > 100 µM (inactive). The GI50 in assay [12] is > 100 µM (inactive); in [13], > 100 µM (inactive); in assay [14], > 100 µM (inactive); in assay [15], > 100 µM (inactive); in [16], > 100 µM (inactive); in assay [17], 43.7 µM (inactive). In addition, the GI50 in assay [18] is > 100 µM (inactive).
Take `O=C(Nc1ccccc1)c1cc2cc(CCl)ccc2oc1=O`: the GI50 in [1] is 17 µM (inactive); in assay [2] it was > 100 µM (inactive); in assay [3], above 100 µM; in [4] it was 15 µM (inactive); in assay [5], 62.2 µM (inactive); in [6], > 100 µM (inactive). Besides, the GI50 was 26.4 µM (inactive) in [7]; > 100 µM (inactive) in assay [8]; 16.5 µM (inactive) in assay [9]; > 100 µM (inactive) in assay [10]; > 100 µM (inactive) in [11]; > 100 µM (inactive) in assay [20]. Also, the GI50 in assay [12] is 47 µM (inactive); in assay [14] it was > 100 µM (inactive); in [15], > 100 µM (inactive); in [16] it was 80.4 µM (inactive); in assay [17], 41.5 µM (inactive); in assay [18], > 100 µM (inactive). In assay [19], the GI50 was 16.6 µM (inactive).
As for `CCOC(=O)Nc1c(C#N)[n+]([O-])c2cc(Cl)c(Cl)cc2[n+]1[O-]`, the GI50 is 32.5 µM (inactive) in [2]; 5.13 µM in [3]; 39.5 µM (inactive) in assay [4]; 16.3 µM (inactive) in [5]; 16.9 µM (inactive) in [6]; 16.7 µM (inactive) in assay [7]. The GI50 in assay [8] was 16.4 µM (inactive); in assay [9] it was 19.7 µM (inactive); in assay [10], 13.7 µM (inactive); in assay [11], 15.3 µM (inactive); in assay [12] it was 15.3 µM (inactive); in assay [13], 12.9 µM (inactive). Besides, the GI50 was 24.2 µM (inactive) in assay [14]; 16.4 µM (inactive) in assay [15]; 21.7 µM (inactive) in [16]; 4.09 µM (inactive) in assay [17]; 16.5 µM (inactive) in [18]; 10.7 µM (inactive) in assay [19].
As to `C=CCOC(=O)Cn1cnc2c(N)ncnc21`, the GI50 in assay [1] was > 100 µM (inactive); in assay [2] it was > 100 µM (inactive); in assay [3] it was above 100 µM; in [4], > 100 µM (inactive); in assay [5], > 100 µM (inactive); in assay [6], > 100 µM (inactive). The GI50 in assay [7], in assay [8], in assay [9], in [10], in assay [11] and in [12] was > 100 µM (inactive) each time. Besides, the GI50 in [13], in assay [14], in [15], in assay [16], in assay [17] and in assay [18] was > 100 µM (inactive) throughout. Further, in assay [19], the GI50 was > 100 µM (inactive).
`CC1(C)C2CCC3=C(CCC4(C)C5C[C@](C)(C(=O)O)CC[C@]5(C)CC[C@]34C)[C@@]2(C)CC[C@@H]1O` (some centres undefined): the GI50 in assay [1] was 12.1 µM (inactive); in assay [2], 18.3 µM (inactive); in assay [3] it was 16.5 µM; in assay [4] it was 31 µM (inactive); in [5], 16.6 µM (inactive); in assay [6], 17.5 µM (inactive). The GI50 in assay [7] was 19.9 µM (inactive); in assay [8], 23.7 µM (inactive); in assay [9], 19.3 µM (inactive); in assay [10], 15.2 µM (inactive); in assay [11] it was 16.3 µM (inactive); in assay [20], 49.8 µM (inactive). Also, the GI50 in [12] was 31.2 µM (inactive); in assay [13], 37.3 µM (inactive); in assay [14], 20.2 µM (inactive); in assay [16], > 10 µM (inactive); in assay [17] it was 30.8 µM (inactive); in [19], 19.3 µM (inactive).
In the case of `O=C(Nc1ccccc1F)c1cc2ccc(O)cc2o/c1=N\c1cccc(F)c1`, the GI50 in assay [1] is 9.89 µM (inactive); in [2] it was 15 µM (inactive); in assay [3] it was 10.2 µM; in assay [4], 25.6 µM (inactive); in assay [5], 4.42 µM (inactive); in assay [6], 15.7 µM (inactive). The GI50 in assay [7] is 15.1 µM (inactive); in assay [8], 14.8 µM (inactive); in assay [9] it was 2.16 µM (inactive); in assay [10], 6.35 µM (inactive); in [11], 9.86 µM (inactive); in [20], 23.7 µM (inactive). Also, the GI50 in [12] was 19.2 µM (inactive); in assay [13], 17.5 µM (inactive); in [14], 28.1 µM (inactive); in assay [16], 15.9 µM (inactive); in assay [17] it was 12.9 µM (inactive); in [18] it was 19.5 µM (inactive). For the same compound, the GI50 in assay [19] is 11.8 µM (inactive).
On to `Fc1cc(C2=Nn3c(COc4ccccc4Cl)nnc3S/C2=C\c2ccc(Cl)cc2)c(Cl)cc1Cl`, for which the GI50 in [1] was 4.66 µM (inactive); in assay [2], 5.97 µM (inactive); in assay [3] it was 3.72 µM; in assay [4], 11.8 µM (inactive); in assay [5], 3.77 µM (inactive); in assay [6], 3.75 µM (inactive). Also, the GI50 was 5.14 µM (inactive) in assay [7]; 2.26 µM (inactive) in assay [8]; 1.96 µM (inactive) in assay [9]; 3.38 µM (inactive) in [10]; 9.84 µM (inactive) in [11]; 3.96 µM (inactive) in [20]. Besides, the GI50 in assay [12] was 2.83 µM (inactive); in [13] it was 5.6 µM (inactive); in assay [14], 19.3 µM (inactive); in [17], 4.39 µM (inactive); in assay [18], 21.8 µM (inactive).
